# Measured values from patent US8158670B2 (priority 1996, dated 2012).
# Key:
# [1] = system: Vascular smooth muscle cells (BO54); test: Scratch-migration assay; format: cell-based, baboon; set-up: key: −=no toxicity; +1=minimal; +2=mild; +3=moderate; +4=marked toxicity; details: Continuous Exposure, 1.0 μg/mL
# Description: (§1) Vascular smooth muscle cells (BO54) were derived from explants of baboon aortic smooth muscle, as described in Example 10. The cells were grown in flat bottom, six well tissue culture plates, which hold about 5 ml of medium. The vascular smooth muscle cells were plated at 200,000 cells/well and placed at 37° C. in a humidified 5% CO2 incubator for 18 hours. The wells were then scratched with a sterile portion of a single edge razor blade that was held by clamp or pliers and was brought aseptically into contact with the bottom of the well at a 90° angle. The cells from a small area along the scratch were removed by a sterile cotton tipped applicator while the blade was in contact with the bottom of the well. After incubation, the presence of cells in the “scratched” area is indicative of cell migration across the scratch line.
# Briefly, a stock solution of cytochalasin B (Sigma Chemical Co.) in dimethyl sulfoxide (DMSO) at 1 mg/ml was prepared. […]
# In this Table, “M” indicates Migration Grade. wherein −=no migration; +1=minimal; +2=mild; +3=moderate; and +4=marked (maximum density; limit of cell contact inhibition) migration of vascular smooth muscle cells into the cleared area adjacent to the scratch. […] The migration results are expressed as “Grade in the Cleared Area of the Well/Grade in an Undisturbed Region of the Well.” The toxicity values represent a grade for all cells in each well.
# [2] = pig, in vivo
# [3] = system: Vascular smooth muscle cells (BO54); test: Scratch-migration assay; format: cell-based, baboon; set-up: key to Migration Grade in the Cleared Area of the Well / Migration Grade in an Undisturbed Region of the Well: −=no migration; +1=minimal; +2=mild; +3=moderate; +4=marked (maximum density; limit of cell contact inhibition) migration
# Description: as §1
# Briefly, a stock solution of cytochalasin B (Sigma Chemical Co.) in dimethyl sulfoxide (DMSO) at 1 mg/ml was prepared. Test dilutions of cytochalasin B or control medium were added. Each experiment included two sets of plates:
# A set: Test agent exposure for 1, 3, 6, 8 and 10 days only; and
# B set: Test agent exposure for 1, 3, 6, 8 and 10 days, followed by a seven day recovery time with control medium.
# Both sets of plates were fixed (10% formalin in PBS) and stained (0.02% crystal violet) at the end of the timed exposures. Test concentrations for cytochalasin B were 1, 0.1 and 0.01 μg/ml, and a negative medium control was included. Fresh medium and drug were supplied 3 times per week.
# In this Table, “M” indicates Migration Grade. wherein −=no migration; +1=minimal; +2=mild; +3=moderate; and +4=marked (maximum density; limit of cell contact inhibition) migration of vascular smooth muscle cells into the cleared area adjacent to the scratch. In this Table, “T” denotes a morphological Toxicity Grade, wherein −=no toxicity; +1=minimal; +2=mild; +3=moderate; and +4=marked toxicity. The migration results are expressed as “Grade in the Cleared Area of the Well/Grade in an Undisturbed Region of the Well.” The toxicity values represent a grade for all cells in each well.
# [4] = system: vascular smooth muscle cells of balloon-traumatized arteries; format: in vivo, pig; details: relative to a PBS control
# [5] = system: Vascular smooth muscle (BO54) cells; format: cell-based, baboon; details: 5 minute exposure
# [6] = Day 1, Continuous Exposure, 0.01 μg/mL
# [7] = Day 1, Continuous Exposure, 0.1 μg/mL
# [8] = Day 1, Continuous Exposure, 1.0 μg/mL
# [9] = Day 1 exposure, 7-day Recovery Post Exposure, 0.01 μg/mL
# [10] = Day 1 exposure, 7-day Recovery Post Exposure, 0.1 μg/mL
# [11] = Day 1 exposure, 7-day Recovery Post Exposure, 1.0 μg/mL
# [12] = Day 3, Continuous Exposure, 0.01 μg/mL
# [13] = Day 3, Continuous Exposure, 0.1 μg/mL
# [14] = Day 3, Continuous Exposure, 1.0 μg/mL
# [15] = Day 3 exposure, 7-day Recovery Post Exposure, 0.01 μg/mL
# [16] = Day 3 exposure, 7-day Recovery Post Exposure, 0.1 μg/mL
# [17] = Day 3 exposure, 7-day Recovery Post Exposure, 1.0 μg/mL
# [18] = Day 6, Continuous Exposure, 0.01 μg/mL
# [19] = Day 6, Continuous Exposure, 0.1 μg/mL
# [20] = Day 6, Continuous Exposure, 1.0 μg/mL
# [21] = Day 6 exposure, 7-day Recovery Post Exposure, 0.01 μg/mL
# [22] = Day 6 exposure, 7-day Recovery Post Exposure, 0.1 μg/mL
# [23] = Day 6 exposure, 7-day Recovery Post Exposure, 1.0 μg/mL
# [24] = Day 8, Continuous Exposure, 0.01 μg/mL
# [25] = Day 8, Continuous Exposure, 0.1 μg/mL
# [26] = Day 8, Continuous Exposure, 1.0 μg/mL
# [27] = Day 8 exposure, 7-day Recovery Post Exposure, 0.01 μg/mL
# [28] = Day 8 exposure, 7-day Recovery Post Exposure, 0.1 μg/mL
# [29] = Day 8 exposure, 7-day Recovery Post Exposure, 1.0 μg/mL
# [30] = Day 10, Continuous Exposure, 0.01 μg/mL
# [31] = Day 10, Continuous Exposure, 0.1 μg/mL
# [32] = Day 10, Continuous Exposure, 1.0 μg/mL
# [33] = Day 10 exposure, 7-day Recovery Post Exposure, 0.01 μg/mL
# [34] = Day 10 exposure, 7-day Recovery Post Exposure, 0.1 μg/mL
# [35] = Day 10 exposure, 7-day Recovery Post Exposure, 1.0 μg/mL
structure (smiles),measurement,setting,value
C=C1[C@@H](C)[C@H]2[C@H](Cc3ccccc3)NC(=O)[C@]23OC(=O)/C=C/[C@H](O)CCC[C@@H](C)C/C=C/[C@H]3[C@@H]1O [cytochalasin B],morphological Toxicity Grade,[1]; Day 8,+4
same,morphological Toxicity Grade,[1]; Day 10,+4
same,incidence of mural microthrombi,[2],decreased
same,lumen area of test region versus normal control segment of the same artery,[2],approximately two times as large
same,luminal area versus other test agents or controls,[2],larger luminal area
same,percent change in treated vs. normal luminal area (increase),[2],≈ 140%
same,toxicity to the vascular smooth muscle cells,[2],appeared to be toxic to the vascular smooth muscle cells
same,± percent change in treated vs. normal luminal area,[2],≈ 20%
same,ability to migrate following removal of the therapeutic agent,"[3]; 0.1 μg/ml, even after 10 days of continuous exposure",+3 to +4
same,Migration Grade in an Undisturbed Region of the Well,[3]; [6],+3
same,Migration Grade in the Cleared Area of the Well,[3]; [6],+1
same,Migration Grade in an Undisturbed Region of the Well,[3]; [7],+3
same,Migration Grade in the Cleared Area of the Well,[3]; [7],+1
same,Migration Grade in an Undisturbed Region of the Well,[3]; [8],+2
same,Migration Grade in the Cleared Area of the Well,[3]; [8],−
same,Migration Grade in an Undisturbed Region of the Well,[3]; [9],−4
same,Migration Grade in the Cleared Area of the Well,[3]; [9],+3
same,Migration Grade in an Undisturbed Region of the Well,[3]; [10],+4
same,Migration Grade in the Cleared Area of the Well,[3]; [10],+3
same,Migration Grade in an Undisturbed Region of the Well,[3]; [11],+3
same,Migration Grade in the Cleared Area of the Well,[3]; [11],+2
same,Migration Grade in an Undisturbed Region of the Well,[3]; [12],+4
same,Migration Grade in the Cleared Area of the Well,[3]; [12],+3
same,Migration Grade in an Undisturbed Region of the Well,[3]; [13],+4
same,Migration Grade in the Cleared Area of the Well,[3]; [13],+1
same,Migration Grade in an Undisturbed Region of the Well,[3]; [14],+2
same,Migration Grade in the Cleared Area of the Well,[3]; [14],−
same,Migration Grade in an Undisturbed Region of the Well,[3]; [15],−4
same,Migration Grade in the Cleared Area of the Well,[3]; [15],+3
same,Migration Grade in an Undisturbed Region of the Well,[3]; [16],+4
same,Migration Grade in the Cleared Area of the Well,[3]; [16],+3
same,Migration Grade in an Undisturbed Region of the Well,[3]; [17],+3
same,Migration Grade in the Cleared Area of the Well,[3]; [17],+2
same,Migration Grade in an Undisturbed Region of the Well,[3]; [18],+4
same,Migration Grade in the Cleared Area of the Well,[3]; [18],+3
same,Migration Grade in an Undisturbed Region of the Well,[3]; [19],+4
same,Migration Grade in the Cleared Area of the Well,[3]; [19],+2
same,Migration Grade in an Undisturbed Region of the Well,[3]; [20],+2
same,Migration Grade in the Cleared Area of the Well,[3]; [20],−
same,Migration Grade in an Undisturbed Region of the Well,[3]; [21],+4/+4
same,Migration Grade in the Cleared Area of the Well,[3]; [21],+4/+4
same,Migration Grade in an Undisturbed Region of the Well,[3]; [22],+4
same,Migration Grade in the Cleared Area of the Well,[3]; [22],+3
same,Migration Grade in an Undisturbed Region of the Well,[3]; [23],+3
same,Migration Grade in the Cleared Area of the Well,[3]; [23],+2
same,Migration Grade in an Undisturbed Region of the Well,[3]; [24],+4
same,Migration Grade in the Cleared Area of the Well,[3]; [24],+3
same,Migration Grade in an Undisturbed Region of the Well,[3]; [25],+4
same,Migration Grade in the Cleared Area of the Well,[3]; [25],+2
same,Migration Grade in an Undisturbed Region of the Well,[3]; [26],+2
same,Migration Grade in the Cleared Area of the Well,[3]; [26],−
same,Migration Grade in an Undisturbed Region of the Well,[3]; [27],+4/+4
same,Migration Grade in the Cleared Area of the Well,[3]; [27],+4/+4
same,Migration Grade in an Undisturbed Region of the Well,[3]; [28],+4
same,Migration Grade in the Cleared Area of the Well,[3]; [28],+3
same,Migration Grade in an Undisturbed Region of the Well,[3]; [29],+3
same,Migration Grade in the Cleared Area of the Well,[3]; [29],+2
same,Migration Grade in an Undisturbed Region of the Well,[3]; [30],+4
same,Migration Grade in the Cleared Area of the Well,[3]; [30],+3
same,Migration Grade in an Undisturbed Region of the Well,[3]; [31],+4
same,Migration Grade in the Cleared Area of the Well,[3]; [31],+2
same,Migration Grade in an Undisturbed Region of the Well,[3]; [32],+2
same,Migration Grade in the Cleared Area of the Well,[3]; [32],−
same,Migration Grade in an Undisturbed Region of the Well,[3]; [33],+4/+4
same,Migration Grade in the Cleared Area of the Well,[3]; [33],+4/+4
same,Migration Grade in an Undisturbed Region of the Well,[3]; [34],+4/+4
same,Migration Grade in the Cleared Area of the Well,[3]; [34],+4/+4
same,Migration Grade in an Undisturbed Region of the Well,[3]; [35],+3
same,Migration Grade in the Cleared Area of the Well,[3]; [35],+2
same,migration into the cleared area adjacent to the scratch,[3]; dose of 0.1 μg/ml,+1 to +2
same,time to resume migration after cells clear the agent,[3]; in vitro data,≤ 24 h
same,BRDU uptake (cell proliferation),[4],"inhibited BRDU uptake (i.e., cell proliferation) without killing the vascular smooth muscle cells"
same,minimum effective dose (MED),[5],10 µg/mL
